The term EC50 denotes the midpoint of the concentration-response curve.

Like-named read-outs stand apart in the source and are kept apart here. Bounds are passed on as bounds.

Data on two compounds can be found in PMC8469169, “Design, Synthesis, and Cytotoxicity Assessment of [^64Cu]Cu-NOTA-Terpyridine Platinum Conjugate: A Novel Chemoradiotherapeutic Agent with Flexible Linker” (Nanomaterials, 2021).

In one series the test system is GM05757 cells. Briefly: PrestoBlue (resazurin) cytotoxicity assay in GM05757 normal fibroblasts. Here is the method: Human CRC cells HCT116 obtained from ATCC were cultured in Eagle’s minimal essential medium (EMEM), while Dulbecco’s modified Eagle medium (DMEM) was used for the normal fibroblast cell line GM05757 purchased from Coriell Institute. These culture media were supplemented with 10% FBS, 26.2 mM sodium bicarbonate, 2 mM L-glutamine, and a mix of penicillin (100 UI/mL) and streptomycin (100 μg/mL). Cells were incubated at 37 °C in a humidified environment with 5% CO2.
Cytotoxic activity was measured with the PrestoBlue method, which consists of a Resazurin-based metabolic assay. Briefly, HCT116 cells (2 × 10^4 cells per well) and GM05757 cells (5 × 10^3 cells per well) were seeded in a 96-well plate and incubated for 24 h. Then, the cells were treated with the Pt drugs at concentrations ranging from 0 to 500 µM for a subsequent 24, 48, and 72 h. […] The final concentration of DMSO was less than 1%. Then, the media were removed, and the cells were washed with warm PBS and exposed with PrestoBlue reagent for an incubation time of 20 min. Changes in cell viability were recorded by fluorescence (λex = 570 nm; λem = 610 nm). […] The fluorescence values measured for blank groups were subtracted from those obtained from the treated and untreated cells.
On the technique in general: Alamar Blue is a resazurin reagent that responds to reducing activity.

Series [1] deals with HCT116 cells. Briefly: PrestoBlue (resazurin) cytotoxicity assay in HCT116 cells. The series is classed as cell-based, human.
Procedure: Human CRC cells HCT116 obtained from ATCC were cultured in Eagle’s minimal essential medium (EMEM), while Dulbecco’s modified Eagle medium (DMEM) was used for the normal fibroblast cell line GM05757 purchased from Coriell Institute. […] Cells were incubated at 37 °C in a humidified environment with 5% CO2.
Cytotoxic activity was measured with the PrestoBlue method, which consists of a Resazurin-based metabolic assay. […] The final concentration of DMSO was less than 1%. Then, the media were removed, and the cells were washed with warm PBS and exposed with PrestoBlue reagent for an incubation time of 20 min. Changes in cell viability were recorded by fluorescence (λex = 570 nm; λem = 610 nm). […] The fluorescence values measured for blank groups were subtracted from those obtained from the treated and untreated cells.
In series [2] the test system is HCT116 cells. The conditions noted are these: cited from earlier work.
[3] abbreviates: read-out: EC50 GM05757 24 h, 24 h incubation.
[4] abbreviates: read-out: EC50 GM05757 48 h, 48 h incubation.
Where [5] appears, read: read-out: EC50 GM05757 72 h, 72 h incubation.
Where [6] appears, read: 24 h incubation, read-out: EC50 HCT116 24 h.
Where [7] appears, read: 48 h incubation, read-out: EC50 HCT116 48 h.
Setting [8] is: 72 h incubation, read-out: EC50 HCT116 72 h.

As to `N.N.[Cl][Pt][Cl]` [Cisplatin, reference compound], the EC50 in the series with GM05757 cells (setting [3]) came to 88 ± 4 µM; in the series with GM05757 cells (setting [4]), 84 ± 2 µM; in the series with GM05757 cells (setting [5]) it was 77 ± 1 µM; in the series with HCT116 cells [1] (setting [6]) it was 31 ± 2 µM; in the series on HCT116 cells [1] (setting [7]), 42 ± 8 µM; with HCT116 cells [1] (setting [8]) it was 23 ± 3 µM. Moreover, in the series on HCT116 cells [2], the Cellular accumulation was 5 ng Pt/10^6 HCT116 cells.
Regarding `F[P-](F)(F)(F)(F)F.O=C(O)CN1CCN(CCCOc2cc3[n+]4c(c2)-c2cccc[n+]2[Pt-2]4([Cl])[n+]2ccccc2-3)CCN(CC(=O)O)CC1` [NOTA-C3-TP], the EC50 in the series on GM05757 cells (setting [3]) is 504 ± 4 µM; in the series on GM05757 cells (setting [4]) it was 202 ± 5 µM; with GM05757 cells (setting [5]) it was 51 ± 3 µM; in the series with HCT116 cells [1] (setting [6]) it was greater than 700 µM; in the series with HCT116 cells [1] (setting [7]), 63 ± 2 µM; with HCT116 cells [1] (setting [8]), 24 ± 1 µM.
